Experimental data taken from patent US20230265151A1, “GIP/GLP1 CO-AGONIST COMPOUNDS” (priority 2020, published 2023).
Read-outs that look alike come from different tables or passages of the source. *1 amine or outer side, *2 acyl side, *3 side chain or, on linkers, in order; H or OH if unused. Where a SMILES comes first, the peptide text is derived from it. Side-chain parts run from the residue outwards. [ ]: non-standard residue; d: D form. The star is where a group is joined. αMePhe(2-F) = C[C@](N)(Cc1ccccc1F)C(=O)O; γGlu = O=C(O)[C@H](CCC(=O)[*:2])N[*:1]; C14 diacid = O=C(O)CCCCCCCCCCCCC(=O)*; αMeY = C[C@](N)(Cc1ccc(O)cc1)C(=O)O; 4Pal = N[C@@H](Cc1ccncc1)C(=O)O; αMeL = CC(C)C[C@](C)(N)C(=O)O; Orn = NCCC[C@H](N)C(=O)O; AEEA = NCCOCCOCC(=O)O; Aib = CC(C)(N)C(=O)O

How the values were obtained:
Assay type in all cases: cell-based
hGLP-1R = hGLP-1R (Homo sapiens, UniProt P43220); assay: Functional cAMP formation (HTRF) in HEK-293 clonal cells expressing hGLP-1R, 0.1% bovine casein, without or with 1.0% human serum albumin; set-up: expressed in transfected cells; conditions: for EC50: geometric mean, read-out: hGLP-1R EC50, nM (SEM, n); for Emax: read-out: hGLP-1R Emax, % ± SEM
hGLP-1R, sequence (P43220 24-463): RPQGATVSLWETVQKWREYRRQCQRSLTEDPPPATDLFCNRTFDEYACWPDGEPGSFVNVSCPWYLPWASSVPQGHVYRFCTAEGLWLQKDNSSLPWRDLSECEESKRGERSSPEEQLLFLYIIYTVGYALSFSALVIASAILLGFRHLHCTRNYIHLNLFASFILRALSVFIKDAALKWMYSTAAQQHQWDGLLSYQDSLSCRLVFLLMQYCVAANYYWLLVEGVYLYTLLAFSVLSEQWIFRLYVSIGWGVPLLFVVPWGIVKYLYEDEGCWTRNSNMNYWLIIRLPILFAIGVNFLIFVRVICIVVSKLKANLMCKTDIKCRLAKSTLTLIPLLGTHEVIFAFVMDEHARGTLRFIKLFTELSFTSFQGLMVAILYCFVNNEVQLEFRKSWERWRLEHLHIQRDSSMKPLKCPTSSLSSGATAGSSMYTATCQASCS
Procedure, shortened: (§1)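 Cells were stimulated with peptide for 30 min at 37° C, then lysed in buffer carrying cAMP-d2 and anti-cAMP Eu3+-cryptate for a competitive HTRF read after at least 60 min at room temperature. The 665/620 nm ratio was converted to nM cAMP against a standard curve.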

hGIPR = molecular target: T1, hGIPR (Homo sapiens, UniProt P48546); assay: Functional cAMP formation (HTRF) in HEK-293 clonal cells expressing hGIPR, 0.1% bovine casein, without or with 1.0% human serum albumin; conditions: for Emax: read-out: hGIPR Emax, % ± SEM; for EC50: geometric mean, read-out: hGIPR EC50, nM (SEM, n)
T1 construct: expressed in transfected cells
T1 sequence (P48546 22-466): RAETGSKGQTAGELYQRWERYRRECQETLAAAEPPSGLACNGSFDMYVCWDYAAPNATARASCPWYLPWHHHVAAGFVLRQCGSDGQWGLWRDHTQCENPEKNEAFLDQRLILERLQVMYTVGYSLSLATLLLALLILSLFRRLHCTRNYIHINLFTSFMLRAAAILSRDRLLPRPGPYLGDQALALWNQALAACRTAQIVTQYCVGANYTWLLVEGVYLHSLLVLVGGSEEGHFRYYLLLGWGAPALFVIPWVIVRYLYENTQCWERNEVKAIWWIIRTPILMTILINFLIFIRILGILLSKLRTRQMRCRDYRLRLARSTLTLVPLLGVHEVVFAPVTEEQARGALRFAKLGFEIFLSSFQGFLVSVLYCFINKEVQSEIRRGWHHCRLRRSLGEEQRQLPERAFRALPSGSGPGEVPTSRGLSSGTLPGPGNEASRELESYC
Procedure, shortened: as §1

hGCGR = molecular target: T2, hGCGR (Homo sapiens, UniProt P47871); assay: Functional cAMP formation (HTRF) in HEK-293 clonal cells expressing hGCGR, 0.1% bovine casein, without or with 1.0% human serum albumin; conditions: geometric mean, read-out: hGCGR EC50, nM (SEM, n)
T2 construct: expressed in transfected cells
T2 sequence (P47871 26-477): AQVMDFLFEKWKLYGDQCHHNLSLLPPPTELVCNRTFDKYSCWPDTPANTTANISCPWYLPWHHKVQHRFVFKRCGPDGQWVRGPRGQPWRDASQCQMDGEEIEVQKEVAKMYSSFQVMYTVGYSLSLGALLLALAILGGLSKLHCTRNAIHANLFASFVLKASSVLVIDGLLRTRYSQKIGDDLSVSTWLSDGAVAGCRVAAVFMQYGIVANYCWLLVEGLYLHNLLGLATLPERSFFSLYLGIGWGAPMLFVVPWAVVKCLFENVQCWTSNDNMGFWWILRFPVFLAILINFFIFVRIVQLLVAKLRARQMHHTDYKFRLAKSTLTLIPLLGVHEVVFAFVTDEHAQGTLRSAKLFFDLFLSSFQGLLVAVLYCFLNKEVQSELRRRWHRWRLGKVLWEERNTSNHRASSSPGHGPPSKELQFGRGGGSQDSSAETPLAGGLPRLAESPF
Procedure, shortened: as §1

[1] = 0.1% bovine casein and 1.0% human serum albumin, 37° C.
[2] = HEK293, 0.1% bovine casein and 1.0% human serum albumin, 37° C., percent of maximal response to GLP-1(7-36)NH2
[3] = HEK293, 0.1% bovine casein and 1.0% human serum albumin, 37° C., percent of maximal response to GIP(1-42)NH2
[4] = HEK293, percent of maximal response to GIP(1-42)NH2, 37° C., 0.1% bovine casein, arithmetic mean
[5] = cAMP, incubated at 37° C., 0.1% bovine casein (no human serum albumin)
[6] = HEK293, percent of maximal response to GLP-1(7-36)NH2, 37° C., 0.1% bovine casein, arithmetic mean

Row | SMILES | EC50 (hGLP-1R; [1]) | Emax (hGLP-1R; [2]) | Emax (hGIPR; [3]) | Emax (hGIPR; [4]) | EC50 (hGIPR; [5]) | EC50 (hGCGR; [1]) | EC50 (hGCGR; [5]) | Emax (hGLP-1R; [6]) | EC50 (hGLP-1R; [5]) | EC50 (hGIPR; [1])
1 | CC[C@H](C)[C@H](NC(=O)[C@H](Cc1ccccc1)NC(=O)[C@H](CCC(=O)O)NC(=O)C(C)(C)NC(=O)[C@H](CCC(N)=O)NC(=O)[C@H](C)NC(=O)[C@H](CCCCNC(=O)COCCOCCNC(=O)COCCOCCNC(=O)CC[C@H](NC(=O)CCCCCCCCCCCCC(=O)O)C(=O)O)NC(=O)[C@H](CCCN)NC(=O)[C@H](CC(=O)O)NC(=O)[C@H](CC(C)C)NC(=O)[C@](C)(CC(C)C)NC(=O)[C@@H](NC(=O)[C@H](CO)NC(=O)[C@H](Cc1ccncc1)NC(=O)[C@H](CC(=O)O)NC(=O)[C@H](CO)NC(=O)[C@@H](NC(=O)[C@](C)(Cc1ccccc1F)NC(=O)[C@@H](NC(=O)CNC(=O)[C@H](CCC(=O)O)NC(=O)C(C)(C)NC(=O)[C@@H](N)Cc1ccc(O)cc1)[C@@H](C)O)[C@@H](C)O)[C@@H](C)CC)C(=O)NCC(=O)N[C@@](C)(Cc1ccc(O)cc1)C(=O)N[C@@H](CC(C)C)C(=O)N[C@H](C(=O)N[C@@H](CCC(=O)O)C(=O)NCC(=O)NCC(=O)N[C@@H](CCCCNC(=O)COCCOCCNC(=O)COCCOCCNC(=O)CC[C@H](NC(=O)CCCCCCCCCCCCC(=O)O)C(=O)O)C(=O)N[C@@H](CO)C(=O)N[C@@H](CO)C(=O)NCC(=O)N[C@@H](C)C(=O)N1CCC[C@H]1C(=O)N1CCC[C@H]1C(=O)N1CCC[C@H]1C(=O)N[C@@H](CO)C(N)=O)[C@@H](C)CC [Example 104] | 12.3 nM | 95.8% | 95.9% | 94.9% | 0.0361 nM | > 9950 nM | > 9950 nM | – | – | –
2 | CC[C@H](C)[C@H](NC(=O)[C@H](CC(C)C)NC(=O)[C@](C)(Cc1ccc(O)cc1)NC(=O)[C@@H](CCC(=O)O)NC(=O)[C@@H](NC(=O)[C@H](Cc1ccccc1)NC(=O)[C@H](CCC(=O)O)NC(=O)C(C)(C)NC(=O)[C@H](CCC(N)=O)NC(=O)[C@H](C)NC(=O)[C@H](CCCCNC(=O)COCCOCCNC(=O)COCCOCCNC(=O)CC[C@H](NC(=O)CCCc1ccc(C(C)(C)C)cc1)C(=O)O)NC(=O)[C@H](CCCN)NC(=O)[C@H](CC(=O)O)NC(=O)[C@H](CC(C)C)NC(=O)[C@](C)(CC(C)C)NC(=O)[C@@H](NC(=O)[C@H](CO)NC(=O)[C@H](CCCCNC(=O)COCCOCCNC(=O)COCCOCCNC(=O)CC[C@H](NC(=O)CCCc1ccc(C(C)(C)C)cc1)C(=O)O)NC(=O)[C@H](CC(=O)O)NC(=O)[C@H](CO)NC(=O)[C@@H](NC(=O)[C@](C)(Cc1ccccc1F)NC(=O)[C@@H](NC(=O)CNC(=O)[C@H](CCC(=O)O)NC(=O)C(C)(C)NC(=O)[C@@H](N)Cc1ccc(O)cc1)[C@@H](C)O)[C@@H](C)O)[C@@H](C)CC)[C@@H](C)CC)C(=O)N[C@@H](CCC(=O)O)C(=O)NCC(=O)NCC(=O)N1CCC[C@H]1C(=O)N[C@@H](CO)C(=O)N[C@@H](CO)C(=O)NCC(=O)N[C@@H](C)C(=O)N1CCC[C@H]1C(=O)N1CCC[C@H]1C(=O)N1CCC[C@H]1C(=O)N[C@@H](CO)C(N)=O [Example 130] | – | – | – | 94.7 ± 4.51% | 0.0266 nM | – | > 9950 nM | 100 ± 1.69% | – | –
3 | CC[C@H](C)[C@H](NC(=O)[C@H](CC(C)C)NC(=O)[C@](C)(Cc1ccc(O)cc1)NC(=O)[C@@H](CCC(=O)O)NC(=O)[C@@H](NC(=O)[C@H](Cc1ccccc1)NC(=O)[C@H](CCC(=O)O)NC(=O)C(C)(C)NC(=O)[C@H](CCC(N)=O)NC(=O)[C@H](C)NC(=O)[C@H](CCCCNC(=O)COCCOCCNC(=O)COCCOCCNC(=O)CC[C@H](NC(=O)CCCCCCCCCCCCC(=O)O)C(=O)O)NC(=O)[C@H](CCCN)NC(=O)[C@H](CC(=O)O)NC(=O)[C@H](CC(C)C)NC(=O)[C@](C)(CC(C)C)NC(=O)[C@@H](NC(=O)[C@H](CO)NC(=O)[C@H](Cc1ccncc1)NC(=O)[C@H](CC(=O)O)NC(=O)[C@H](CO)NC(=O)[C@@H](NC(=O)[C@](C)(Cc1ccccc1F)NC(=O)[C@@H](NC(=O)CNC(=O)[C@H](CCC(=O)O)NC(=O)C(C)(C)NC(=O)[C@@H](N)Cc1ccc(O)cc1)[C@@H](C)O)[C@@H](C)O)[C@@H](C)CC)[C@@H](C)CC)C(=O)N[C@@H](CCC(=O)O)C(=O)NCC(=O)NCC(=O)N[C@@H](CCCCNC(=O)COCCOCCNC(=O)COCCOCCNC(=O)CC[C@H](NC(=O)CCCCCCCCCCCCC(=O)O)C(=O)O)C(=O)N[C@@H](CO)C(=O)N[C@@H](CO)C(=O)NCC(N)=O [Example 183] (H-Y[Aib]EGT[αMePhe(2-F)]TSD[4Pal]SI[αMeL]LD[Orn]K([AEEA-AEEA-γGlu-C14 diacid])AQ[Aib]EFI[dE][αMeY]LIEGGK([AEEA-AEEA-γGlu-C14 diacid])SSG-NH2) | 66.6 nM | 97.3% | 75.5% | 93.5 ± 1.46% | 0.0326 nM | > 9950 nM | > 9950 nM | 93.9 ± 4.99% | 1.37 nM | 1.22 nM
4 | CC[C@H](C)[C@H](NC(=O)[C@H](CC(C)C)NC(=O)[C@](C)(Cc1ccc(O)cc1)NC(=O)[C@@H](CCC(=O)O)NC(=O)[C@@H](NC(=O)[C@H](Cc1ccccc1)NC(=O)[C@H](CCC(=O)O)NC(=O)C(C)(C)NC(=O)[C@H](CCC(N)=O)NC(=O)[C@H](C)NC(=O)[C@H](CCCCNC(=O)[C@@H](N)CCCCNC(=O)CC[C@H](NC(=O)CCCCCCCCCCCCC(=O)O)C(=O)O)NC(=O)[C@H](CCCN)NC(=O)[C@H](CC(=O)O)NC(=O)[C@H](CC(C)C)NC(=O)[C@](C)(CC(C)C)NC(=O)[C@@H](NC(=O)C(C)(C)NC(=O)[C@@H](NC(=O)[C@H](CC(=O)O)NC(=O)[C@H](CO)NC(=O)[C@@H](NC(=O)[C@](C)(Cc1ccccc1F)NC(=O)[C@@H](NC(=O)CNC(=O)[C@H](CCC(=O)O)NC(=O)C(C)(C)NC(=O)[C@@H](N)Cc1ccc(O)cc1)[C@@H](C)O)[C@@H](C)O)C(C)C)[C@@H](C)CC)[C@@H](C)CC)C(=O)N[C@@H](CCC(=O)O)C(=O)NCC(=O)NCC(=O)N[C@@H](CCCCNC(=O)[C@@H](N)CCCCNC(=O)CC[C@H](NC(=O)CCCCCCCCCCCCC(=O)O)C(=O)O)C(=O)N[C@@H](CO)C(=O)N[C@@H](CO)C(=O)NCC(=O)N[C@@H](C)C(=O)N1CCC[C@H]1C(=O)N1CCC[C@H]1C(=O)N1CCC[C@H]1C(=O)N[C@@H](CO)C(N)=O [Example 164] | 26.6 nM | 95.4% | 93% | 95.8 ± 5.48% | 0.0464 nM | > 9950 nM | > 9950 nM | 93.8 ± 0.298% | – | –
5 | CC[C@H](C)[C@H](NC(=O)[C@H](CC(C)C)NC(=O)[C@](C)(Cc1ccc(O)cc1)NC(=O)[C@@H](CCC(=O)O)NC(=O)[C@@H](NC(=O)[C@H](Cc1ccccc1)NC(=O)[C@H](CCC(=O)O)NC(=O)C(C)(C)NC(=O)[C@H](CCC(N)=O)NC(=O)[C@H](C)NC(=O)[C@H](CCCCNC(=O)COCCOCCNC(=O)COCCOCCNC(=O)CC[C@H](NC(=O)CCCCCCCCCCCCC(=O)O)C(=O)O)NC(=O)[C@H](CCCN)NC(=O)[C@H](CC(=O)O)NC(=O)[C@H](CC(C)C)NC(=O)[C@](C)(CC(C)C)NC(=O)[C@@H](NC(=O)[C@H](CO)NC(=O)[C@H](Cc1ccncc1)NC(=O)[C@H](CC(=O)O)NC(=O)[C@H](CO)NC(=O)[C@@H](NC(=O)[C@](C)(Cc1ccccc1F)NC(=O)[C@@H](NC(=O)CNC(=O)[C@H](CCC(=O)O)NC(=O)C(C)(C)NC(=O)[C@@H](N)Cc1ccc(O)cc1)[C@@H](C)O)[C@@H](C)O)[C@@H](C)CC)[C@@H](C)CC)C(=O)N[C@@H](CCCN)C(=O)NCC(=O)NCC(=O)N[C@@H](CCCCNC(=O)COCCOCCNC(=O)COCCOCCNC(=O)CC[C@H](NC(=O)CCCCCCCCCCCCC(=O)O)C(=O)O)C(=O)N[C@@H](CO)C(=O)N[C@@H](CO)C(=O)NCC(=O)N[C@@H](C)C(=O)N1CCC[C@H]1C(=O)N1CCC[C@H]1C(=O)N1CCC[C@H]1C(=O)N[C@@H](CO)C(N)=O [Example 151] | 17.3 nM | 112 ± 8.42% | 87.5 ± 3.78% | – | 0.0197 nM | > 9950 nM | > 9950 nM | – | 0.546 nM | 0.306 nM
